Data on 9 compounds can be found in ChEMBL document CHEMBL5665443, “Enzyme Inhibitor Single Concentration assay results for EUbOPEN Chemogenomics Library” (2024).

Holding throughout (settings): Hit No
Test [1] addresses N-glycosylase/DNA lyase (Homo sapiens) (UniProt O15527).
Description: Inhibition of OGG1 by quantifying inhibition of OGG1-mediated cleavage and dissociation of quenched duplex DNA oligonucleotides, measured as fluorescence at 594 nm. To generate a functional strand incision and increase turn-over this assay is coupled to APE1.
The target of test [2] is T1, Endonuclease III-like protein 1 (Homo sapiens) (UniProt P78549).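 Further: enzyme assay tracking NTHL1 cutting and release of a quenched double-stranded DNA oligo substrate, read as fluorescence at 594 nm.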
T1 sequence (whole entry): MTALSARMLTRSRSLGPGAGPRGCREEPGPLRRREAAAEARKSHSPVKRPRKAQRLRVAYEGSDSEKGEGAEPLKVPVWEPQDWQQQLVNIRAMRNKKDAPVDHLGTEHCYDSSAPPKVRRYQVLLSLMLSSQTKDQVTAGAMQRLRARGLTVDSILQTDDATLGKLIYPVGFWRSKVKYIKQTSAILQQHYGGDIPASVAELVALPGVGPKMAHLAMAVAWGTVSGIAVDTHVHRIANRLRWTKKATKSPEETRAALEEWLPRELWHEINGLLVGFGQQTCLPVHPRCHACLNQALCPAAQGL
Description: Inhibition of NTHL1 by quantifying inhibition of NTHL1-mediated cleavage and dissociation of quenched duplex DNA oligonucleotides, measured as fluorescence at 594 nm.

For test [3], the target named is Methyl-CpG-binding domain protein 4 (Homo sapiens) (UniProt O95243).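 Further: MBD4 activity read as fluorescence at 594 nm from cleavage and release of a quenched duplex DNA oligonucleotide, with APE1 coupled to incise the strand and raise turnover.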
Chain of Methyl-CpG-binding domain protein 4 (Homo sapiens) (O95243 whole entry, the tested form may be a part): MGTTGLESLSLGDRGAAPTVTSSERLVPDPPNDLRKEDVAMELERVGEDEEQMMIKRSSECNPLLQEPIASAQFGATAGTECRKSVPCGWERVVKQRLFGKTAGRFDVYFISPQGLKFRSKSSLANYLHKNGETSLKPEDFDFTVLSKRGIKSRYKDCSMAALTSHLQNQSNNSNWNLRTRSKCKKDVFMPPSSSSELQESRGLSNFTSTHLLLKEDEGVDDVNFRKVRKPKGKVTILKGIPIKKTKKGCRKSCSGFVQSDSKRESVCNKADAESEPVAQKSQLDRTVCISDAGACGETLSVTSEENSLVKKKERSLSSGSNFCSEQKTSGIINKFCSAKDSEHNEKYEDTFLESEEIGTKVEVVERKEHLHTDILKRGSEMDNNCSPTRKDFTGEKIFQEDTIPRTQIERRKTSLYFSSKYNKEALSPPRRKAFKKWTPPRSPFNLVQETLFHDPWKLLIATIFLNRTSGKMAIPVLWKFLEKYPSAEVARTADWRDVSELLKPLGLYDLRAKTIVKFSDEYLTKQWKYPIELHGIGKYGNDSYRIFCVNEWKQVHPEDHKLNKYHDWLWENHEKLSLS
Description: Inhibition of MBD4 by quantifying inhibition of MBD4-mediated cleavage and dissociation of quenched duplex DNA oligonucleotides, measured as fluorescence at 594 nm. To generate a functional strand incision and increase turn-over this assay is coupled to APE1.
For test [4], the target named is Uracil-DNA glycosylase (Homo sapiens) (UniProt P13051).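 Further: UNG excision on a quenched double-stranded DNA oligo probe, with APE1 added for strand incision and turnover, read as fluorescence at 594 nm as strands separate.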
Chain of Uracil-DNA glycosylase (Homo sapiens) (P13051 whole entry): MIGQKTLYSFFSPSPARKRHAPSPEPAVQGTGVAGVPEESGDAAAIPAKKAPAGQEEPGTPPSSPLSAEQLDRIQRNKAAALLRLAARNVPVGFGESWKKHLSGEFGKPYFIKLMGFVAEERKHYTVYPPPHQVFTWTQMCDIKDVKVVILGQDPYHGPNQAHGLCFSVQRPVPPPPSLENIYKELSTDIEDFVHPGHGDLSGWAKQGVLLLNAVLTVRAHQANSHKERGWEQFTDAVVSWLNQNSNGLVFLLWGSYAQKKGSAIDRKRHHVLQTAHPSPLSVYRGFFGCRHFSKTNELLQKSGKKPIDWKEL
Description: Inhibition of UNG by quantifying inhibition of UNG-mediated cleavage and dissociation of quenched duplex DNA oligonucleotides, measured as fluorescence at 594 nm. To generate a functional strand incision and increase turn-over this assay is coupled to APE1.
In test [5] the target is Endonuclease 8-like 1 (Homo sapiens) (UniProt Q96FI4).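 Further: fluorescence at 594 nm from quenched duplex DNA oligonucleotides released by NEIL1 cleavage and strand separation, reported as reduction of this enzyme activity.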
Chain of Endonuclease 8-like 1 (Homo sapiens) (Q96FI4 whole entry): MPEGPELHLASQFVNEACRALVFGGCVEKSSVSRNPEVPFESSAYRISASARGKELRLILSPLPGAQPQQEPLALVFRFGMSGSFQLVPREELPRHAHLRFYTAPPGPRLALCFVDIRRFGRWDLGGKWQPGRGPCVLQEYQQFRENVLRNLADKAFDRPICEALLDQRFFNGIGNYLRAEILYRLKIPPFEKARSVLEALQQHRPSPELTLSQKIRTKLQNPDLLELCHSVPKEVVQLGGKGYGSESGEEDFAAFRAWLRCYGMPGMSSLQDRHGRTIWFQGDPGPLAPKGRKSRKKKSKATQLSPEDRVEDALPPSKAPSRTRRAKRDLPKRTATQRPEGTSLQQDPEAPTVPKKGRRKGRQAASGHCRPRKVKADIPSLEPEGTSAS
Description: Inhibition of NEIL1 by quantifying inhibition of NEIL1-mediated cleavage and dissociation of quenched duplex DNA oligonucleotides, measured as fluorescence at 594 nm.
Test [6] has as its target T2, Endonuclease 8-like 2 (Homo sapiens) (UniProt Q969S2).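 Further: fluorescence at 594 nm reports NEIL2 cutting and release of a quenched double-stranded DNA oligo substrate, reduced signal read as inhibition.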
T2 sequence (whole entry): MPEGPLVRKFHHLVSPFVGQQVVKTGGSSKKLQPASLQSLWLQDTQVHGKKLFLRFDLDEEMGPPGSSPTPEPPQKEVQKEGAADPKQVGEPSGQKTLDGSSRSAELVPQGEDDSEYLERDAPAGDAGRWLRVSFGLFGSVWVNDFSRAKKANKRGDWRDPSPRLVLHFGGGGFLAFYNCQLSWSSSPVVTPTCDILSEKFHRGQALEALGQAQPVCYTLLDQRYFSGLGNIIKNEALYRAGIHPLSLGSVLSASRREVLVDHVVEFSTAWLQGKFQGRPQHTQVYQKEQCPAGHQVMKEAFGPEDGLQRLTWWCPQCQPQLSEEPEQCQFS
Description: Inhibition of NEIL2 by quantifying inhibition of NEIL2-mediated cleavage and dissociation of quenched duplex DNA oligonucleotides, measured as fluorescence at 594 nm.

For test [7], the target named is T3, Single-strand selective monofunctional uracil DNA glycosylase (Homo sapiens) (UniProt Q53HV7).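 Further: enzymatic SMUG1 assay coupled with APE1, reading fluorescence at 594 nm released when a quenched double-stranded DNA oligonucleotide substrate is cleaved and separated.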
T3 sequence (whole entry): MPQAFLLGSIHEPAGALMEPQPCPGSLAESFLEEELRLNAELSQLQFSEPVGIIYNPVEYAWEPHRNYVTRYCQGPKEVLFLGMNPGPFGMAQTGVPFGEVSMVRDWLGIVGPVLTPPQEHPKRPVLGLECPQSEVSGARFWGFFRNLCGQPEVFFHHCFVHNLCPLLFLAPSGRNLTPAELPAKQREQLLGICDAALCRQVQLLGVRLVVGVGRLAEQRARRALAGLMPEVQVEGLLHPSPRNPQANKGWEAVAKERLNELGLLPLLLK
Description: Inhibition of SMUG1 by quantifying inhibition of SMUG1-mediated cleavage and dissociation of quenched duplex DNA oligonucleotides, measured as fluorescence at 594 nm. To generate a functional strand incision and increase turn-over this assay is coupled to APE1.

Test [8] addresses G/T mismatch-specific thymine DNA glycosylase (Homo sapiens) (UniProt Q13569).
Description: Inhibition of TDG by quantifying inhibition of TDG-mediated cleavage and dissociation of quenched duplex DNA oligonucleotides, measured as fluorescence at 594 nm. To generate a functional strand incision and increase turn-over this assay is coupled to APE1.

Where a SMILES comes first, the peptide text is derived from it. [ ]: non-standard residue; d: D form. Arg(Me) = CNC(=N)NCCC[C@H](N)C(=O)O; d4Pal = N[C@H](Cc1ccncc1)C(=O)O; azaGly = NNC(=O)O

Chain of G/T mismatch-specific thymine DNA glycosylase (Homo sapiens) (Q13569 whole entry): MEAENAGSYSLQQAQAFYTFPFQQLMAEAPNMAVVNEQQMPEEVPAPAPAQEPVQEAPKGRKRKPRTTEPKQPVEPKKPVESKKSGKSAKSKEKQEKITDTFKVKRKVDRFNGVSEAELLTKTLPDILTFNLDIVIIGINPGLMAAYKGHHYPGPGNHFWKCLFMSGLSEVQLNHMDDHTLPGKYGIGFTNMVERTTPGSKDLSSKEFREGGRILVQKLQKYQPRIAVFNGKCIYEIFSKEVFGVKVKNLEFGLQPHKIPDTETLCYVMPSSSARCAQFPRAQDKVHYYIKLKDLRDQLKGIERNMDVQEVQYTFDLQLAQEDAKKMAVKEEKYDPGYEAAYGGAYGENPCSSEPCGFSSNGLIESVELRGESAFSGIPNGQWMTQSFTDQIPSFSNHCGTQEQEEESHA
Chain of N-glycosylase/DNA lyase (Homo sapiens) (O15527 whole entry): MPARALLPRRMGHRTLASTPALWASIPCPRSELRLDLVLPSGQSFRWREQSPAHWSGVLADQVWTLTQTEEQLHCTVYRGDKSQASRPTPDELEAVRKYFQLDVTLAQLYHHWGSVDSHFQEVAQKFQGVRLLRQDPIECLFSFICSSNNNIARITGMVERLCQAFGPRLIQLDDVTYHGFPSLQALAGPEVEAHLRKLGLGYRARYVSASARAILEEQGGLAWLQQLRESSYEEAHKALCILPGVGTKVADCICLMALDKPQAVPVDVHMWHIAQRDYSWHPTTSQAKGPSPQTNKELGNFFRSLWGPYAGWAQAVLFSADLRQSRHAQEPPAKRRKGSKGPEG

As for `CNC(=N)NCCC[C@H](NC(=O)[C@H](CC(C)C)NC(=O)NNC(=O)[C@H](Cc1ccccc1)NC(=O)[C@H](CO)NC(=O)[C@H](CC(N)=O)NC(=O)[C@@H](Cc1ccncc1)NC(=O)[C@H](N)Cc1ccc(O)cc1)C(=O)N[C@@H](Cc1ccccc1)C(N)=O` (H-[dY][d4Pal]NSF[azaGly]L[Arg(Me)]F-NH2), the inhibition was -3.16% in test [1] (Compound Concentration 10.0 uM); -1.29% in test [2] (Compound Concentration 10.0 uM); 54% in test [3] (Compound Concentration 10.0 uM); 6.61% in test [4] (Compound Concentration 10.0 uM); -4.68% in test [5] (Compound Concentration 10.0 uM); 6.4% in test [6] (Compound Concentration 10.0 uM). The inhibition was 19.5% in test [7] (Compound Concentration 10.0 uM) and 52.5% in test [8] (Compound Concentration 10.0 uM).

Take `CNC(=O)COc1cc2cc(Nc3nc(N4C[C@H](C)C[C@H](C)C4)ncc3Cl)ccc2n(C)c1=O`: the inhibition in test [1] (Compound Concentration 10.0 uM) was 1.85%; in test [2] (Compound Concentration 10.0 uM), -7.86%; in test [3] (Compound Concentration 10.0 uM), 45.8%; in test [4] (Compound Concentration 10.0 uM), 2.34%; in test [5] (Compound Concentration 10.0 uM) it was -7.56%; in test [6] (Compound Concentration 10.0 uM) it was 4.1%. Further, the inhibition in test [7] (Compound Concentration 10.0 uM) came out at 10.3%; in test [8] (Compound Concentration 10.0 uM), 53.4%.

As to `Nc1nc(NCc2ccccc2)nc(-c2cccc(CO)c2)n1`, the inhibition is -2.67% in test [1] (Compound Concentration 10.0 uM); -5.89% in test [2] (Compound Concentration 10.0 uM); 54% in test [3] (Compound Concentration 10.0 uM); -0.892% in test [4] (Compound Concentration 10.0 uM); -6.05% in test [5] (Compound Concentration 10.0 uM); -1.51% in test [6] (Compound Concentration 10.0 uM). Also, the inhibition in test [7] (Compound Concentration 10.0 uM) was 0.878%; in test [8] (Compound Concentration 10.0 uM), 32.3%.

For the compound `Cc1cn([C@H](C)CC#N)c(=O)c2cc(Cn3nc(C(F)F)cc3Cl)nn12`, the inhibition is -5.53% in test [1] (Compound Concentration 10.0 uM); -5.89% in test [2] (Compound Concentration 10.0 uM); 55.5% in test [3] (Compound Concentration 10.0 uM); 1.83% in test [4] (Compound Concentration 10.0 uM); -8.77% in test [5] (Compound Concentration 10.0 uM); -2.27% in test [6] (Compound Concentration 10.0 uM). For the same compound, the inhibition is 9.99% in test [7] (Compound Concentration 10.0 uM) and 31.2% in test [8] (Compound Concentration 10.0 uM).

As for `CN(C)C(=O)Cn1cc(-c2nc([C@@](C)(c3ccc(-c4cnc(N)nc4)cc3)C3CC3)no2)cn1`, the inhibition in test [1] (Compound Concentration 1.0 uM) is -4.49%; in test [2] (Compound Concentration 1.0 uM), -9.18%; in test [3] (Compound Concentration 1.0 uM) it was 54.5%; in test [4] (Compound Concentration 1.0 uM) it was 6.25%; in test [5] (Compound Concentration 1.0 uM), -7.71%; in test [6] (Compound Concentration 1.0 uM) it was -2.79%. Also, the inhibition in test [7] (Compound Concentration 1.0 uM) stood at 14.1%; in test [8] (Compound Concentration 1.0 uM), 41%.

For the compound `O=S(=O)(NC1CCC(c2cc(F)ccc2F)(S(=O)(=O)c2ccc(Cl)cc2)CC1)C(F)(F)F` (configuration not stated), the inhibition is 19.6% in test [1] (Compound Concentration 1.0 uM); -3.92% in test [2] (Compound Concentration 1.0 uM); 61.8% in test [3] (Compound Concentration 1.0 uM); 0.604% in test [4] (Compound Concentration 1.0 uM); -7.56% in test [5] (Compound Concentration 1.0 uM); -8.91% in test [6] (Compound Concentration 1.0 uM). Further, the inhibition in test [7] (Compound Concentration 1.0 uM) stood at 19.5%; in test [8] (Compound Concentration 1.0 uM) it was 36.8%.

With `Cc1ccc2nc(CNCCCOc3ccccc3)cc(O)c2c1`, the inhibition in test [1] (Compound Concentration 10.0 uM) was 11.7%; in test [2] (Compound Concentration 10.0 uM), 2%; in test [3] (Compound Concentration 10.0 uM) it was 18.2%; in test [4] (Compound Concentration 10.0 uM), -1.26%; in test [5] (Compound Concentration 10.0 uM), 0.467%; in test [6] (Compound Concentration 10.0 uM), -8.14%. Further, the inhibition in test [7] (Compound Concentration 10.0 uM) was 6.33%; in test [8] (Compound Concentration 10.0 uM), 34.3%.

Consider `Cn1c(C2(NC(=O)c3ccc(NCC4CCCCC4)nc3)CCC2)nc2ccc(/C=C/C(=O)O)cc21`, for which the inhibition in test [1] (Compound Concentration 10.0 uM) stood at 15%; in test [2] (Compound Concentration 10.0 uM) it was 3.97%; in test [3] (Compound Concentration 10.0 uM), 65.1%; in test [4] (Compound Concentration 10.0 uM), 7.23%; in test [5] (Compound Concentration 10.0 uM), 2.89%; in test [6] (Compound Concentration 10.0 uM) it was 5.38%. In addition, the results for the inhibition in test [7] (Compound Concentration 10.0 uM) and in test [8] (Compound Concentration 10.0 uM) were 15.9% and 57.9%, respectively.

`C=C1/C(=C\C=C2/CCC[C@]3(C)[C@@H]([C@H](C)/C=C/[C@H](C)C(C)C)CC[C@@H]23)C[C@@H](O)C[C@@H]1O`: the inhibition in test [1] (Compound Concentration 10.0 uM) is -5.13%; in test [2] (Compound Concentration 10.0 uM), 0.685%; in test [3] (Compound Concentration 10.0 uM), 52.9%; in test [4] (Compound Concentration 10.0 uM), 1.6%; in test [5] (Compound Concentration 10.0 uM) it was -1.8%; in test [6] (Compound Concentration 10.0 uM), -1.51%. Also, the inhibition in test [7] (Compound Concentration 10.0 uM) worked out at 9.91%; in test [8] (Compound Concentration 10.0 uM) it was 47.8%.
